Experimental data taken from patent publication US12637433B2, “Histone deacetylase inhibitors” (THE UNIVERSITY OF QUEENSLAND, priority 2020, dated 2026).
Read-outs that look alike come from different tables or passages of the source.

Columns and labels:
Assay type in all cases: biochemical
[1] = biological target: T1, human HDAC1 enzyme (Homo sapiens, UniProt Q13547); test: Human HDAC1 enzyme assay (Class I HDACs)
T1 construct: purchased BPS Bioscience
Experimental: The inhibitory effect of compounds on HDAC1 activity was assessed in vitro using an optimised assay performed in black/flat black wall 384-well plate (Corning Inc.). All reagents and compounds were prepared in HDAC1 assay buffer (25 mM Tris-HCl, 137 mM NaCl, 2.7 mM KCl, 1 mM MgCl2·H2O and 0.1 mg/mL bovine serum albumin; pH 8). Various concentrations of inhibitor were pre-incubated with 50 ng/mL human HDAC1 enzyme (BPS Bioscience) for 30 min at room temperature on a plate shaker. Substrate (Leu(Ac)-Gly-Lys(Ac)-AMC, 12 μM) were then added and incubated for 90 min at 37° C. in the dark. The enzymatic reaction was then incubated with the developer solution (1 mg/mL trypsin and 25 μM SAHA) for 15-20 min at room temperature. Fluorescence intensity was measured using PHERAstar plate reader (BMG Labtech) at 350 nm excitation and 460 nm emission.
(§1) Data analysis: Triplicate measurements were made for each data point and error bars represent mean±SEM of three independent experiments. All data were plotted and analysed using GraphPad Prism Version 6.0d for Mac OS X (GraphPad Software). Dose Response Curves plotted using 4 parameters logistic model.

[2] = biological target: T2, human HDAC7 enzyme (Homo sapiens, UniProt Q8WUI4); test: Human HDAC7 enzyme assay (Class IIa HDACs); conditions: Table 8; recombinant human HDAC7
T2 construct: purchased Reaction Biology Corp
T2 sequence (Q8WUI4 whole entry): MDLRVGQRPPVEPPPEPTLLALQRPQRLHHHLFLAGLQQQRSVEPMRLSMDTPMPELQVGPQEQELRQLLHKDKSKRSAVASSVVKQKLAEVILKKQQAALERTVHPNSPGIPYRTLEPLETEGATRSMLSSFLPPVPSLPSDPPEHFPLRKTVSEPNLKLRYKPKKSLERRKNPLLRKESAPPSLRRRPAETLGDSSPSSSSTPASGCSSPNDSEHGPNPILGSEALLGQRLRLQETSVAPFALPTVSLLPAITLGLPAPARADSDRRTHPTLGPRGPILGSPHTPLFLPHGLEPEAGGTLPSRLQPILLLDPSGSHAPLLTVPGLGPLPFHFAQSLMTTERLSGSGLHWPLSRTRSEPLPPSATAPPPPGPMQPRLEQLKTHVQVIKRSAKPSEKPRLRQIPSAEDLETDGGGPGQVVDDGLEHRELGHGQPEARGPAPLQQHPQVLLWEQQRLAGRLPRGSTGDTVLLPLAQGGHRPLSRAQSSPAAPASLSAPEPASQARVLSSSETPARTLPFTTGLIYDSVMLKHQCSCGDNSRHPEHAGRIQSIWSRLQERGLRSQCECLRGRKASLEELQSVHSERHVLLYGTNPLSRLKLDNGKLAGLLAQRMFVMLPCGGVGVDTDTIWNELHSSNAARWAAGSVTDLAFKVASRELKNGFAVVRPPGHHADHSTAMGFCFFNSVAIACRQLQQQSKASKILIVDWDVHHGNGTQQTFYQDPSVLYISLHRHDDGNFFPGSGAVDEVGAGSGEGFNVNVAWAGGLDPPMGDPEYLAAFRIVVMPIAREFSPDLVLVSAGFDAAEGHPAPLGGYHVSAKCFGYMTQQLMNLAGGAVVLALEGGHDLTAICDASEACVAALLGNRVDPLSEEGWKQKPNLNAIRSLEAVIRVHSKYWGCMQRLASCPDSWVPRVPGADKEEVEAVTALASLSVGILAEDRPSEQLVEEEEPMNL

[3] = biological target: T3, human HDAC6 enzyme (Homo sapiens, UniProt Q9UBN7); test: Human HDAC6 enzyme assay (Class IIb HDACs); conditions: Table 9; recombinant human HDAC
T3 construct: purchased Cayman Chemical
T3 sequence (Q9UBN7 whole entry): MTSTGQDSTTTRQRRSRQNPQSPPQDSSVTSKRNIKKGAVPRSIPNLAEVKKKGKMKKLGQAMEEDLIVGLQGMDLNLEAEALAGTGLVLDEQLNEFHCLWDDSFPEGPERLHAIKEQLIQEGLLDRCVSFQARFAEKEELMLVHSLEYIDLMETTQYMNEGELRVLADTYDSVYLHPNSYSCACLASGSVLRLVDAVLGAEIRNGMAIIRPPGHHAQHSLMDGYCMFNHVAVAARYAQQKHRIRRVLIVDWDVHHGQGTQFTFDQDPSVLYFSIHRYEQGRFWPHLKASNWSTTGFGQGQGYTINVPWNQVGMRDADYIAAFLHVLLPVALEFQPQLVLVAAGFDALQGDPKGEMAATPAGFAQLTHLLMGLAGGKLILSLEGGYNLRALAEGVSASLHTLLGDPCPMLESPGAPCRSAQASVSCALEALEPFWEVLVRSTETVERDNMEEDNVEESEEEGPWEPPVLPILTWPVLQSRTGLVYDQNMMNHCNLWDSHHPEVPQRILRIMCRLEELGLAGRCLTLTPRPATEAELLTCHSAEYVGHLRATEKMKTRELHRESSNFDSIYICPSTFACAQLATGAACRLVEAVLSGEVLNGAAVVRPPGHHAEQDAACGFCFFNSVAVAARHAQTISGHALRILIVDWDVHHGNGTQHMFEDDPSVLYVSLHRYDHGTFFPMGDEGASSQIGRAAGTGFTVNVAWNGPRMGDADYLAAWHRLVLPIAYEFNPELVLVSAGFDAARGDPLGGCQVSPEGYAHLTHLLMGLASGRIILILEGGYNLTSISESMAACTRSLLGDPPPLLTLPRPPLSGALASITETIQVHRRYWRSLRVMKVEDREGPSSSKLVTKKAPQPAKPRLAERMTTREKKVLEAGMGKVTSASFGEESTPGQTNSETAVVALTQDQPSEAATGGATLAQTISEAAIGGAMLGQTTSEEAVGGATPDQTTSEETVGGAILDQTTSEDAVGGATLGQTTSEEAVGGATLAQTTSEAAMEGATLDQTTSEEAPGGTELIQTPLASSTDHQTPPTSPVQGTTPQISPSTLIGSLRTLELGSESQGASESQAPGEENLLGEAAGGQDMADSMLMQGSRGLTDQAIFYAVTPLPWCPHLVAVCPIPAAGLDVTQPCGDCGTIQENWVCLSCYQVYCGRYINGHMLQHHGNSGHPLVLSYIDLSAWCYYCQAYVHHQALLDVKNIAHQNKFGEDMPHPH
Experimental: The inhibitory effect of compounds on HDAC6 activity was assessed in vitro using an optimised assay performed in black/flat black wall 384-well plate (Corning Inc.). All reagents and compounds were prepared in HDAC assay buffer (25 mM Tris-HCl, 137 mM NaCl, 2.7 mM KCl, 1 mM MgCl2·H2O and 0.1 mg/mL bovine serum albumin; pH 8). Various concentrations of inhibitor were pre-incubated with 100 ng/ml human HDAC6 enzyme (Cayman Chemical) for 15 min at room temperature on a plate shaker. Substrate (Boc-Lys(Ac)-AMC, 25 μM) were then added and incubated for 60 min at 37° C. in the dark. The enzymatic reaction was then incubated with the developer solution (1 mg/mL trypsin and 10 μM SAHA) for 15-20 min at room temperature. Fluorescence intensity was measured using PHERAstar plate reader (BMG Labtech) at 350 nm excitation and 460 nm emission.
as §1

[4] = biological target: HDAC5 (Homo sapiens, UniProt Q9UQL6); test: Isoform selectivity, HDAC5 inhibition; conditions: Table 9; recombinant human HDAC; read-out: IC50, Class IIa HDAC5
HDAC5, sequence (Q9UQL6 whole entry, canonical isoform): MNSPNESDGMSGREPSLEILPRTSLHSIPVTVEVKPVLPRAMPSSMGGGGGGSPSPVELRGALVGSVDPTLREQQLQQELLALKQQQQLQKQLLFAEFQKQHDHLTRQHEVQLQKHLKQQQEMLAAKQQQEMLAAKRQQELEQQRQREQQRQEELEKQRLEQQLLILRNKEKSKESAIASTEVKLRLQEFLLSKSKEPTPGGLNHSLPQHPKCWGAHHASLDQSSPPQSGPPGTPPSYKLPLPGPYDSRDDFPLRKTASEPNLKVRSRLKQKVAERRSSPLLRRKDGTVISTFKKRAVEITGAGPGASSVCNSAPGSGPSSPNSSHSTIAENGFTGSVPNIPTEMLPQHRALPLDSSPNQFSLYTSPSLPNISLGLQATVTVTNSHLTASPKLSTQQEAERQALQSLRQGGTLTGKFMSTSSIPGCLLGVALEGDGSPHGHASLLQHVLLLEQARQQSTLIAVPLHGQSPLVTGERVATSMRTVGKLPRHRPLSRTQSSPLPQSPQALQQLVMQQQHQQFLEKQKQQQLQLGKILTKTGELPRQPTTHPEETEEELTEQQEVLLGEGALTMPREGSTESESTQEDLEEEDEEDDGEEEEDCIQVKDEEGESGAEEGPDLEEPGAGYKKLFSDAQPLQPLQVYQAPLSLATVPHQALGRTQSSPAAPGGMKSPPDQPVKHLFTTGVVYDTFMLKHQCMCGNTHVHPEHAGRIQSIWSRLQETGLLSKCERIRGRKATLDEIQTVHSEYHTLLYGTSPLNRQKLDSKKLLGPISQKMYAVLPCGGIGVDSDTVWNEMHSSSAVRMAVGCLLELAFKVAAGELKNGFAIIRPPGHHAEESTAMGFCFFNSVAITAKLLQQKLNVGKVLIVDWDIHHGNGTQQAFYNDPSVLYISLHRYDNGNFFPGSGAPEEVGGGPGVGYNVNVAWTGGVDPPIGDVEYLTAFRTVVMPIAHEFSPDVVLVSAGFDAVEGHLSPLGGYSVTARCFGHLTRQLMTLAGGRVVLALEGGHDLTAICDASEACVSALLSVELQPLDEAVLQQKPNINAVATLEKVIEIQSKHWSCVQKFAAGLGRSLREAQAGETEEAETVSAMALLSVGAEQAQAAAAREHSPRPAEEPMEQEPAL

[5] = biological target: HDAC9 (Homo sapiens, UniProt Q9UKV0); test: Isoform selectivity, HDAC9 inhibition; conditions: Table 9; recombinant human HDAC; read-out: IC50, Class IIa HDAC9
HDAC9, sequence (Q9UKV0 whole entry, canonical isoform): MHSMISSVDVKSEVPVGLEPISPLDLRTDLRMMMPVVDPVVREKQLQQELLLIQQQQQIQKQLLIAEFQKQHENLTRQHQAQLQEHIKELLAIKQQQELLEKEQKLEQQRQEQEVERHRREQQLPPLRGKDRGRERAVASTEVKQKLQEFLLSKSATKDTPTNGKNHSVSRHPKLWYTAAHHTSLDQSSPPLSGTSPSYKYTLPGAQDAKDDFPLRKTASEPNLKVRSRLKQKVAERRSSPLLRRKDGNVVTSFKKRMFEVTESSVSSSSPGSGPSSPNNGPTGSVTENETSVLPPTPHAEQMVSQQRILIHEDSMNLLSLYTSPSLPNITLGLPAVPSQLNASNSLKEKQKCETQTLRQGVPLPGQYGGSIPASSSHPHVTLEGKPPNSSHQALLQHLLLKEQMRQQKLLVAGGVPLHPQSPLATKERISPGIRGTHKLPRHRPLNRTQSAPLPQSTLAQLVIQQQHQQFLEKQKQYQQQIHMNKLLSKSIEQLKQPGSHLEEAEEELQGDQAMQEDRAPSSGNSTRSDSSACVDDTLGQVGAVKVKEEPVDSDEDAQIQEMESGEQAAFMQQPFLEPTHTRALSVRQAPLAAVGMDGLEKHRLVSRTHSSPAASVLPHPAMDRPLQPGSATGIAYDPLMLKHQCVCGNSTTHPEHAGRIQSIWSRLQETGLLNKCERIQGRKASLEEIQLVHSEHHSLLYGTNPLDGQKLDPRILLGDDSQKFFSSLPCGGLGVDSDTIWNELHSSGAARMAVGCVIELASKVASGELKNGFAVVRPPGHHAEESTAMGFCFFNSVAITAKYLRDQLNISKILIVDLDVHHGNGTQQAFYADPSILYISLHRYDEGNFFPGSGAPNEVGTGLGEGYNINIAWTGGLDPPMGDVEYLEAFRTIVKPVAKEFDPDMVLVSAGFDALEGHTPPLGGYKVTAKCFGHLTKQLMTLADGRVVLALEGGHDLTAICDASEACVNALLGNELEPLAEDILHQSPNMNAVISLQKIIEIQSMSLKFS

[6] = biological target: HDAC4 (Homo sapiens, UniProt P56524); test: Isoform selectivity, HDAC4 inhibition; conditions: Table 9; recombinant human HDAC; read-out: IC50, Class IIa HDAC4
[7] = Table 8, recombinant human HDAC1, read-out: IC50 (nM) (HDAC1)
[8] = Table 9, recombinant human HDAC, read-out: IC50, Class I HDAC1

T1 sequence (Q13547 whole entry): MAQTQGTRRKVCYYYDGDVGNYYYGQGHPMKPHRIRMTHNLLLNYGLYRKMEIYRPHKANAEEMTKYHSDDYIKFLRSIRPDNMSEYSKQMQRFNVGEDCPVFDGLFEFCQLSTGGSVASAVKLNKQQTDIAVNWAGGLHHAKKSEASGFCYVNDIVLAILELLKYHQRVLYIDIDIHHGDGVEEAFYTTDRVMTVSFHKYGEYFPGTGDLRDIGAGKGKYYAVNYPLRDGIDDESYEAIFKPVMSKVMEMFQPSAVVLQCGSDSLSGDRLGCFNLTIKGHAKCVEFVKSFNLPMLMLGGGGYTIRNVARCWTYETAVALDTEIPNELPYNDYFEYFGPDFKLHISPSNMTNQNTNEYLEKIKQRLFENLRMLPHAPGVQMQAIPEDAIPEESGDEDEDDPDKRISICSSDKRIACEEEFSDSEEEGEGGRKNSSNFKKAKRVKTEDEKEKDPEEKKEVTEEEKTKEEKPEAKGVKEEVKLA

SMILES	IC50 [1, 7] [nM]	IC50 [2] [nM]	IC50 [3] [nM]	IC50 [4] [nM]	IC50 [5] [nM]	IC50 [6] [nM]	IC50 [1, 8] [nM]
NC(=O)c1ccc(Nc2ccc(C(=O)NO)c(-c3ccccc3)c2)cc1 [Example 79]	> 10000	43 ± 9					
Cc1nc2ccccc2c(=O)n1Cc1ccc(C(=O)NO)c(-c2ccccc2)c1 [compound 12]	2200	7.3 ± 1.2	1100	9 ± 2	17 ± 3	42 ± 7	
CN(C)c1ccc(C2(C(=O)Nc3ccc(C(=O)NO)c(-c4ccccc4)c3)CCCC2)cc1 [Example 64]	> 10000	556 ± 317					
O=C(NCc1ccc(C(=O)NO)c(-c2ccccc2)c1)c1cc2ccccc2[nH]1 [Example 24]	> 10000	59 ± 10					
O=C(NCc1ccc(C(=O)NO)c(Br)c1)Nc1cccc2cccnc12 [Example 1, 2-bromo-N-hydroxy-4-((3-(quinolin-8-yl)ureido)methyl)benzamide, reference compound]	3840 ± 1630	> 10000					
Cc1cc(F)ccc1-c1cc(Cn2c(C)nc3ccccc3c2=O)ccc1C(=O)NO [Example 13]	4210 ± 1760	12 ± 1.2					
O=C(NO)c1ccc(CN2C(=O)c3ccccc3S2(=O)=O)cc1-c1ccccc1 [Example 56]	4900		5500	8 ± 1	93 ± 44	48 ± 6	4900
Cc1nc2ccccc2c(=O)n1Cc1ccc(C(=O)NO)c(-c2ccc(F)cc2)c1 [Example 14]	3200	6.4 ± 0.8	1300 ± 480	8 ± 1	15 ± 3	22 ± 3	
O=C(NCc1ccc(C(=O)NO)c(-c2ccccc2)c1)c1ccc[nH]1 [Example 23]	> 10000	81 ± 14					
CC(C)C(C(=O)Nc1ccc(C(=O)NO)c(-c2ccccc2)c1)c1ccccc1 (stereo not drawn) [Example 59]	> 10000	555 ± 334					
O=C(NO)c1ccc(CN2C(=O)c3cccc(F)c3C2=O)cc1-c1ccccc1 [Example 55]	27000		4400	16 ± 2	183 ± 102	13 ± 3	27000
O=C(NO)c1ccc(NC(=O)C2(c3ccc(Br)cc3)CCCC2)cc1-c1ccccc1 [Example 65]	4900 ± 1710	1210 ± 700					
O=C(NCc1ccc(C(=O)NO)c(-c2ccccc2)c1)Nc1cccc2cccnc12 [Example 2]	2360 ± 452	214 ± 54					
O=C(NCc1ccc(C(=O)NO)c(Oc2ccccc2)c1)Nc1cccc2cccnc12 [Example 3, 2-phenoxy-N-hydroxy-4-((3-(quinolin-8-yl)ureido)methyl)benzamide, reference compound]	2520 ± 1340	> 10000					
O=C(NO)c1ccc(CN2C(=O)c3ccccc3C2=O)cc1-c1ccccc1 [Example 36]	32000		5700	12 ± 2	133 ± 52	28 ± 4	32000
Cc1cc(=O)n(Cc2ccc(C(=O)NO)c(-c3ccccc3)c2)c(C)n1 [Example 45]	> 10000						
